Patent US20260183405A1, “SMALL MOLECULE-DRUG-CONJUGATES CLEAVABLE IN A TUMOR MICROENVIRONMENT” (priority 2022, published 2026)
Like-named read-outs stand apart in the source and are kept apart here. Starred links: 1 amine or outer side, 2 acyl side, 3 side chain; linkers in the order of their positions; H or OH if unused. Non-standard residues stand in square brackets, D forms with d. Residues, ends and D or L forms follow the SMILES beside them. Groups on a side chain read outwards from the residue. *: point of attachment. Camptothecin(7-Et) = CCc1c2c(nc3ccccc13)-c1cc3c(c(=O)n1C2)COC(=O)[C@@]3(CC)O*; EuK = O=C(O)CC[C@H](NC(=O)N[C@@H](CCCCN*)C(=O)O)C(=O)O; Deacetylacetazolamide = NS(=O)(=O)c1nnc(N*)s1; Suc = O=C(CCC(=O)[*:2])[*:1]; PEG3 = NCCOCCOCCOCCC(=O)O; CO = O=C([*:1])[*:2]

Legend:
Assay in all cases: Cytotoxicity in vitro in the presence and absence of elastase (MTT assay)
Type in all cases: cell-based
[1] = test system: NCI-H292; details: NCI-H292 cells, 72 h incubation
Experimental: (§1) Cultivation of cells was performed according to standard procedures with the media recommended by the provider. The cells, in a total volume of 100 μL, were seeded in a 96-well plate with a white bottom (#3610). After a 24 h incubation period at 37° C. and 5% CO2, the medium was exchanged by adding 90 μL fresh medium. The treatment started by adding the test compound in 10 μL of culture medium to the cells in triplicates. Concentrations ranging from 10^−5 M to 10^−13 M were chosen. Two identically treated sets of samples were prepared. One set was treated with the test compound alone, whereas to the second set the compound and 10 nM elastase (NE) was added followed by a 72 h incubation period at 37° C. and 5% CO2. The proliferation was detected using the MTT assay (ATCC). At the end of the incubation period the MTT reagent was added to all samples for 4h. Lysis of the cells followed by addition of the detergent was done overnight. The formed dye was detected at 570 nm. The proliferation of untreated but otherwise identically handled cells was defined as the 100% value. The dose response curves allowed the determination of the respective IC50 values. […]

[2] = test system: SUM149PT; details: SUM149PT cells, 72 h incubation
Experimental: as §1

[3] = test system: HT29; details: HT29 cells, 72 h incubation
Experimental: as §1

[4] = test system: 786-O; details: 786-O cells, 72 h incubation
Experimental: as §1

[5] = compound alone, read-out: IC50 without neutrophil elastase
[6] = with 10 nM elastase (NE), read-out: IC50 with neutrophil elastase

Row | Compound | IC50 [1, 5] | IC50 [1, 6] | IC50 [2, 5] | IC50 [2, 6] | IC50 [3, 5] | IC50 [3, 6] | IC50 [4, 5] | IC50 [4, 6]
1 | CCc1c2c(nc3ccccc13)-c1cc3c(c(=O)n1C2)COC(=O)[C@@]3(CC)OC(=O)[C@@H](NC(=O)[C@@H]1CCCN1C(=O)[C@H](CC(=O)O)NC(=O)CCOCCOCCOCCNC(=O)[C@H](CCCCNC(=O)CCOCCOCCOCCNC(=O)CCC(=O)Nc1nnc(S(N)(=O)=O)s1)NC(=O)CCOCCOCCOCCNC(=O)CCC(=O)Nc1nnc(S(N)(=O)=O)s1)C(C)C [Compound 8, sodium (4S)-4,11-diethyl-3,14-dioxo-3,4,12,14-tetrahydro-1H-pyrano[3′,4′:6,7]indolizino[1,2-b]quinolin-4-yl 1-[(2S)-15-[(N2,N6-bis{14,17-dioxo-17-[(5-sulfamoyl-1,3,4-thiadiazol-2-yl)amino]-4,7,10-trioxa-13-azaheptadecanan-1-oyl}-L-lysyl)amino]-2-(carboxylatomethyl)-4-oxo-7,10,13-trioxa-3-azapentadecanan-1-oyl]-L-prolyl-L-valinate] ({Deacetylacetazolamide-Suc-PEG3}-K([PEG3-Suc-Deacetylacetazolamide])[PEG3]DPV-{Camptothecin(7-Et)}) | > 1000 nM | 10 to 99 nM | > 1000 nM | 10 to 99 nM | > 1000 nM | 10 to 99 nM | > 1000 nM | 10 to 99 nM
2 | CCCNC(=O)Nc1cccc(S(=O)(=O)Nc2cccc([C@@H](CC(=O)O)NC(=O)Nc3ccc(NC(=O)NCCOCCOCCOCCC(=O)N[C@@H](CC(N)=O)C(=O)N4CCC[C@H]4C(=O)N[C@H](C(=O)N[C@@H](CCN(C(=O)CO)[C@@H](c4cc(-c5cc(F)ccc5F)cn4Cc4ccccc4)C(C)(C)C)C(=O)NC)C(C)C)cc3)c2)c1 [Compound 19, sodium N^2-(14-{4-[({(1R)-2-carboxylato-1-[3-({3-[(propylcarbamoyl)amino]benzene-1-sulfonyl}amino)phenyl]ethyl}carbamoyl)amino]anilino}-14-oxo-4,7,10-trioxa-13-azatetradecanan-1-oyl)-L-asparaginyl-L-prolyl-N-[(2S)-4-[{(1R)-1-[1-benzyl-4-(2,5-difluorophenyl)-1H-pyrrol-2-yl]-2,2-dimethylpropyl}(hydroxyacetyl)amino]-1-(methylamino)-1-oxobutan-2-yl]-L-valinamide] | > 1000 nM | 0.1 to 1 nM | > 1000 nM | 0.1 to 1 nM | > 1000 nM | 1 to 9.9 nM | > 1000 nM | 1 to 9.9 nM
3 | CCCNC(=O)Nc1cccc(S(=O)(=O)Nc2cccc([C@@H](CC(=O)O)NC(=O)Nc3ccc(NC(=O)NCCOCCOCCOCCC(=O)N[C@@H](CC(N)=O)C(=O)N4CCC[C@H]4C(=O)N[C@H](C(=O)NCCCN(C(=O)CO)[C@@H](c4cc(-c5cc(F)ccc5F)cn4Cc4ccccc4)C(C)(C)C)C(C)C)cc3)c2)c1 [Compound 16, N^2-(14-{4-[({(1R)-2-carboxy-1-[3-({3-[(propylcarbamoyl)amino]benzene-1-sulfonyl}amino)phenyl]ethyl}carbamoyl)amino]anilino}-14-oxo-4,7,10-trioxa-13-azatetradecanan-1-oyl}-L-asparaginyl-L-prolyl-N-{3-[{(1R)-1-[1-benzyl-4-(2,5-difluorophenyl)-1H-pyrrol-2-yl]-2,2-dimethylpropyl}(hydroxyacetyl)amino]propyl}-L-valinamide] | 100 to 999 nM | 1 to 9.9 nM | 100 to 999 nM | 0.1 to 1 nM | > 1000 nM | 1 to 9.9 nM | > 1000 nM | 1 to 9.9 nM
4 | CCCNC(=O)Nc1cccc(S(=O)(=O)Nc2cccc([C@@H](CC(=O)O)NC(=O)Nc3ccc(NC(=O)NCCOCCOCCOCCC(=O)N[C@@H](CCC(=O)NCCOCCOCCOCCC(=O)N[C@@H](CC(=O)O)C(=O)N4CCC[C@H]4C(=O)N[C@H](C(=O)O[C@]4(CC)C(=O)OCc5c4cc4n(c5=O)Cc5c-4nc4ccccc4c5CC)C(C)C)C(=O)NCCOCCOCCOCCC(=O)N[C@@H](CC(=O)O)C(=O)N4CCC[C@H]4C(=O)N[C@H](C(=O)O[C@]4(CC)C(=O)OCc5c4cc4n(c5=O)Cc5c-4nc4ccccc4c5CC)C(C)C)cc3)c2)c1 [Compound 3] | 100 to 999 nM | 1 to 9.9 nM | 10 to 99 nM | 1 to 9.9 nM | 100 to 999 nM | 1 to 9.9 nM | 100 to 999 nM | 1 to 9.9 nM
5 | CCc1c2c(nc3ccccc13)-c1cc3c(c(=O)n1C2)COC(=O)[C@@]3(CC)OC(=O)[C@@H](NC(=O)[C@@H]1CCCN1C(=O)[C@H](CC(=O)O)NC(=O)CCOCCOCCOCCNC(=O)CCC(=O)Nc1nnc(S(N)(=O)=O)s1)C(C)C [Compound 4, sodium (4S)-4,11-diethyl-3,14-dioxo-3,4,12,14-tetrahydro-1H-pyrano[3′,4′:6,7]indolizino[1,2-b]quinolin-4-yl 1-{(2S)-2-(carboxylatomethyl)-4,17,20-trioxo-20-[(5-sulfamoyl-1,3,4-thiadiazol-2-yl)amino]-7,10,13-trioxa-3,16-diazaicosanan-1-oyl}-L-prolyl-L-valinate] | 100 to 999 nM | 1 to 9.9 nM | 100 to 999 nM | 1 to 9.9 nM | > 1000 nM | 10 to 99 nM | 100 to 999 nM | 1 to 9.9 nM
6 | N2-(14-{4-[({(1R)-2-carboxy-1-[3-({3-[(propylcarbamoyl)amino]benzene-1-sulfonyl}amino)phenyl]ethyl}carbamoyl)amino]anilino}-14-oxo-4,7,10-trioxa-13-azatetradecanan-1-oyl}-L-asparaginyl-L-prolyl-N-{3-[{(1R)-1-[1-benzyl-4-(2,5-difluorophenyl)-1H-pyrrol-2-yl]-2,2-dimethylpropyl}(hydroxyacetyl)amino]propyl}-L-alaninamide [Compound 15] | 100 to 999 nM | 10 to 99 nM | 10 to 99 nM | 1 to 9.9 nM | 100 to 999 nM | 1 to 9.9 nM | > 1000 nM | 10 to 99 nM
7 | CC(C)[C@H](NC(=O)[C@@H]1CCCN1C(=O)[C@H](CC(=O)O)NC(=O)CCOCCOCCOCCNC(=O)NCCCC[C@H](NC(=O)N[C@@H](CCC(=O)O)C(=O)O)C(=O)O)C(=O)N=S(C)(=O)Cc1cc2nc(c1)OCCCOc1cc(F)ccc1-c1cc(ncc1F)N2 (relative stereo) [Compound 9, tetrasodium 1-[(2S,23S,27S)-23,27,29-tricarboxylato-2-(carboxylatomethyl)-4,17,25-trioxo-7,10,13-trioxa-3,16,18,24,26-pentaazanonacosanan-1-oyl]-L-prolyl-N—[(R*)—{[15,19-difluoro-3,4-dihydro-2H,11H-10,6-(azeno)-12,16-(metheno)-1,5,11,13-benzodioxadiazacyclooctadecin-8-yl]methyl}(methyl)oxo-lambda6-sulfanylidene]-L-valinamide] | 100 to 999 nM | 1 to 9.9 nM | 100 to 999 nM | 1 to 9.9 nM | 100 to 999 nM | 1 to 9.9 nM | 100 to 999 nM | 1 to 9.9 nM
8 | CCc1c2c(nc3ccccc13)-c1cc3c(c(=O)n1C2)COC(=O)[C@@]3(CC)OC(=O)[C@@H](NC(=O)[C@@H]1CCCN1C(=O)[C@H](CC(=O)O)NC(=O)CCOCCOCCOCCNC(=O)[C@H](CCCCNC(=O)CCOCCOCCOCCNC(=O)NCCCC[C@H](NC(=O)N[C@@H](CCC(=O)O)C(=O)O)C(=O)O)NC(=O)CCOCCOCCOCCNC(=O)NCCCC[C@H](NC(=O)N[C@@H](CCC(=O)O)C(=O)O)C(=O)O)C(C)C [Compound 7, heptasodium (4S)-4,11-diethyl-3,14-dioxo-3,4,12,14-tetrahydro-1H-pyrano[3′,4′:6,7]indolizino[1,2-b]quinolin-4-yl 1-[(2S)-15-{[N2,N6-bis(3S,7S)(1,3,7-tricarboxylato-5,13,26-trioxo-17,20,23-trioxa-4,6,12,14-tetraazahexacosan-26-yl)-L-lysyl]amino}-2-(carboxylatomethyl)-4-oxo-7,10,13-trioxa-3-azapentadecanan-1-oyl]-L-prolyl-L-valinate] ({EuK-CO-PEG3}-K([PEG3-CO-EuK])[PEG3]DPV-{Camptothecin(7-Et)}) | 100 to 999 nM | 1 to 9.9 nM | 100 to 999 nM | 1 to 9.9 nM | > 1000 nM | 10 to 99 nM | 100 to 999 nM | 1 to 9.9 nM
